Values of other authors as cited in patent US20180110785A1, “METHODS AND COMPOSITIONS FOR AMELIORATING SYMPTOMS ASSOCIATED WITH CHROMOSOMAL ABNORMALITIES” (priority 2014, published 2018).
“Also recorded” adds a separate entry of the source. Where two headings read alike, the source gives them in different places.

Columns and labels:
Ts65Dn mice [1] = details: TsSAG vs EuVeh and TsVeh; cited from earlier work
Ts65Dn mice [2] = details: SAG-treated mice, first 4 months of life; cited from earlier work
Ts65Dn mice [3] = test system: Ts65Dn mice; parameters: cerebellar cross-sectional area at the midline and GC density: dose or concentration left out as unconfirmed; details: cited from earlier work
[4] = test system: Schaffer collateral-CA1 synapses of Ts65Dn mice; details: cited from earlier work
Ts65Dn mice [5] = details: cited from earlier work
primary GCP cultures = details: compared with Shh-Np; cited from earlier work
[6] = test system: cerebellar Purkinje cells of Ts65Dn and euploid mice; details: cited from earlier work
Ts65Dn mice [7] = details: cited from earlier work; remark: listed apart in the source
[8] = in vivo; cited from earlier work
Ts65Dn mice [9] = details: SAG and BrdU co-injected at P0; cited from earlier work
[10] = test system: Schaffer collateral-CA1 synapses of Ts65Dn mice; details: cited from earlier work; for TBS-induced LTP, fEPSP: hippocampal slices from TsSAG mice
[11] = hippocampal slices from Ts65Dn mice

For `CNC1CCC(N(Cc2cccc(-c3ccncc3)c2)C(=O)c2sc3ccccc3c2Cl)CC1` (stereo not drawn) [SAG], the “open-field performance (time in periphery or center)” value (Ts65Dn mice [1]) is given as “no significant differences were observed with TsSAG; also recorded: does not affect open-field performance”, the “tumor formation or complications” value (Ts65Dn mice [2]) is given as “no evidence of tumor formation or obvious complications in the first 4 months of life” and the “GCP number at P6” value (Ts65Dn mice [3]; Ts65Dn mice, SAG subcutaneously on the day of birth) is given as “normalized GCP number”. For the same compound, the “cerebellar cross-sectional area at the midline and GC density” value (Ts65Dn mice [3]; adult (about 16 weeks) Ts65Dn mice, single injection of SAG on the day of birth) was “had the same cross-sectional area and GC density as EuVeh; also recorded: normalizes cerebellar morphology in adult Ts65Dn mice”, the “GCP number at P6” value (Ts65Dn mice [3]; euploid mice (EuSAG), single dose of SAG at P0) was “did not significantly increase GCP number at P6” and the NMDA/AMPA ratio ([4]; TsSAG, n=11) was 0.19±0.034. The “NMDA-EPSCs” value [4, 11] was “partially rescues attenuated NMDA-EPSCs in hippocampal slices from Ts65Dn mice”, the MWM search strategies (Ts65Dn mice [5]; TsSAG mice) was “used the same successful strategies as EuVeh; also recorded: normalizes search strategies of Ts65Dn mice in the MWM” and the “performance in MWM / tasks dependent on hippocampus” value (Ts65Dn mice [5]; adult Ts65Dn mice, single SAG treatment at P0) was “normalized performance of adult Ts65Dn mice in the MWM; also recorded: corrects performance of trisomic mice in tasks dependent on hippocampus”. For the same compound, the MWM performance (Ts65Dn mice [5]; euploid mice) was “had no effect on the performance of euploid mice”, the mitogenic activity (primary GCP cultures) was “had mitogenic activity in primary GCP cultures” and the “depression of EPSC after induction of LTD” value ([6]; Ts65Dn mice, limited to lobule III, P=0.019) was “more depression of EPSC after the induction of LTD”. The PPR values ([6]; euploid mice, lobule IX, P=0.005) was “significantly decreased the PPR values measured in lobule IX”, the “EPSC paired-pulse ratios (PPR) of Purkinje cells” value ([6]; trisomic mice, lobule III and IX) was “did not restore the PPR values in trisomic mice” and the “Y maze performance (alternation, arm entrances; words)” value (Ts65Dn mice [7]; Ts65Dn mice) was “did not have an effect on either outcome in Ts65Dn mice; also recorded: does not improve Y maze performance in Ts65Dn mice”. For the same compound, the Y maze alternation (Ts65Dn mice [7]; TsSAG mice (EuVeh 78%)) was 60%, the “crossing of biological barriers” value [8] was “crosses the gut, the placenta, and the blood-brain barrier; also recorded: penetrates the blood-brain barrier” and the “dentate gyrus deficit / proliferation at P6” value (Ts65Dn mice [9]) was “Dentate gyrus is not affected by SAG treatment”. The “TBS-LTP” value [10, 11] was “rescues attenuated TBS-LTP in hippocampal slices from Ts65Dn mice”, the “TBS-induced LTP, fEPSP” value ([10]; t=30 min) was 132.9±2.2 % of baseline and the “TBS-induced LTP, fEPSP” value ([10]; t=80 min) was 127.4±2.0 % of baseline.
